Converted amounts (≈) assume the structure as drawn.

The target in data set [1] is Lysosomal acid glucosylceramidase (Homo sapiens, UniProt P04062, N409S). In words: Chaperone activity at GCase N370S GBA mutant in patient derived fibroblast cell using 4-methylumbelliferyl-beta-D-glucopyranoside as substrate assessed as substrate cleavage by measuring concentration required for maximal response incubated for 5 days by fluorescence based assay.
Data set [2] in a line: Solubility of the compound in PBS. It is filed as physicochemical.
A short description of data set [3]: Metabolic stability in human liver microsomes assessed as intrinsic clearance. It is filed as ADME, Microsome. The settings on record: read-out: CLH. A general note: Microsomes from liver hold many membrane-bound enzymes, among them those of drug oxidation.
Data set [4] relates to LLC-PK1. In words: Corrected flux ratio of permeability in pig LLC-PK1 cells overexpressing MDR1 to pig LLC-PK1 cells. The data set is classed as ADME, cell-based, Sus scrofa.

Lysosomal acid glucosylceramidase, sequence (P04062 40-536 N409S limits assumed): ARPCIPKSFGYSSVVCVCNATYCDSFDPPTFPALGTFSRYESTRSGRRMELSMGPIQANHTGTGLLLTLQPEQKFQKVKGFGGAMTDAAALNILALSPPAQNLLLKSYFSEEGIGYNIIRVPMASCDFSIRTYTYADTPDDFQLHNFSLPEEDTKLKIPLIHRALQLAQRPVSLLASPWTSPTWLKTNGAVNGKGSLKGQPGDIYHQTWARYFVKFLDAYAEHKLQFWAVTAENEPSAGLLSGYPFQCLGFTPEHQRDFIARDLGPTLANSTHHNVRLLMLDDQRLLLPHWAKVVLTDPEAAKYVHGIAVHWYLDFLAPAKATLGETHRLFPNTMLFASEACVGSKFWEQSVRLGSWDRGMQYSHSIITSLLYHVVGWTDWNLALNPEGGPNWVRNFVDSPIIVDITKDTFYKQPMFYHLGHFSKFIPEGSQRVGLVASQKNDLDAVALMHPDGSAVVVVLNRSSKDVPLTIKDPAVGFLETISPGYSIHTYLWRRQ

Take `Cc1ccccc1C(=O)N1CCN(c2ccnc(N3CCCC3)n2)CC1`: the half-maximal effective concentration (EC50) – broadly, the concentration giving half of the maximal effect – in data set [1] came to 680 nM.

On to `Cc1cc(N2CCN(C(=O)c3ccccc3C)CC2)nc(N2CCCCC2)n1`, for which the concentration giving a half-maximal response (EC50) in data set [1] was 170 nM.

As to `Cc1cc(N2CC3CN(C(=O)c4ccccc4C)CC3C2)nc(N2CCCC2)n1` (configuration not stated), in data set [1], the concentration giving a half-maximal response (EC50) was 660 nM.

For the compound `Cc1cc(N2CCN(C(=O)c3ccccc3C)CC2)nc(N2CCCCCC2)n1`, the concentration for a half-maximal effect (EC50) in data set [1] was determined as 29 nM.

Take `Cc1cc(N2CCN(C(=O)c3cnccn3)CC2)nc(N2CCCC2)n1`: the concentration giving a half-maximal response (EC50) in data set [1] turned out to be 5300 nM.

As to `Cc1cc(N2CCN(C(=O)c3ccccc3C)CC2)nc(N2CCC2)n1`, the concentration giving a half-maximal response (EC50) in data set [1] is 440 nM.

In the case of `Cc1cc(N2CCCN(C(=O)c3ccccc3C)CC2)nc(N2CCCC2)n1`, the EC50 in data set [1] is 1800 nM.

Consider `Cc1cc(N2CCN(C(=O)c3ccncc3)CC2)nc(N2CCCC2)n1`, for which the EC50 in data set [1] was determined as 6800 nM.

Take `Cc1ccc(C(=O)N2CCN(c3cc(C)nc(N4CCCC4)n3)CC2)cc1`: the EC50 in data set [1] is 70 nM.

Turning to `Cc1cc(N2CCN(C(=O)c3ccccc3F)CC2)nc(N2CCCC2)n1`, the EC50 in data set [1] was determined as 170 nM.

As for `Cc1cc(N2CCN(C(=O)c3ccccc3C)CC2)nc(C(C)C)n1`, the half-maximal effective concentration (EC50) in data set [1] was determined as 150 nM.

With `Cc1cc(N2CCN(C(=O)c3ccccc3C)CC2)nc(N2CCC(F)(F)C2)n1`, the EC50 in data set [1] is 1400 nM.

As for `Cc1cc(N2CCN(C(=O)C3CCCCC3)CC2)nc(N2CCCC2)n1`, the 50% effective concentration (EC50) in data set [1] came out at 360 nM.

With `CC(C)(C)c1ccc(C(=O)N2CCN(c3nc(N4CCCC4)nc4c3COC4)CC2)cc1`, in data set [1], the concentration for a half-maximal effect (EC50) was 150 nM.

On to `Cc1ccccc1C(=O)N1CCN(c2nc(N3CCCC3)nc3c2COC3)CC1`, for which the concentration giving a half-maximal response (EC50) in data set [1] is 540 nM.

`Cc1ccccc1C(=O)N1CCN(c2nc(N3CCCC3)nc3c2CCC3)CC1`: the EC50 in data set [1] came out at 30 nM.

Consider `Cc1cc(N2CCN(C(=O)c3ccccc3C)CC2)nc(N2CCCC2)n1`, for which the solubility (commonly the dissolved amount per volume that the medium holds) in data set [2] stood at 94 µM (≈ 34.4 µg/mL). For the same compound, the EC50 in data set [1] was found to be 75 nM. For the same compound, the CLint scaled in data set [3] is 0.104 mL/min/kg. Moreover, the Ratio in data set [4] is 1.38.

With `Cc1cc(N2CCN(C(=O)c3ccccc3C(F)(F)F)CC2)nc(N2CCCC2)n1`, in data set [1], the concentration giving a half-maximal response (EC50) is 100 nM.

For `Cc1cc(N2CCN(C(=O)c3ccccc3)CC2)nc(N2CCCC2)n1`, the EC50 in data set [1] amounted to 72 nM.

For the compound `Cc1cccc(C(=O)N2CCN(c3cc(C)nc(N4CCCC4)n3)CC2)c1`, in data set [1], the 50% effective concentration (EC50) was found to be 130 nM.

Turning to `Cc1ccccc1C(=O)N1CCN(c2nc(N3CCCC3)nc3ccccc23)CC1`, in data set [2], the solubility was 85 µM (≈ 34.1 µg/mL). Also, the concentration for a half-maximal effect (EC50) in data set [1] is 79 nM. For the same compound, the CLint scaled in data set [3] was found to be 0.789 mL/min/kg. In addition, the Ratio in data set [4] is on record as 2.19.

In the case of `Cc1cc(N2CCN(C(=O)c3ccccc3C)CC2)nc(N2CCOCC2)n1`, the EC50 in data set [1] is 5200 nM.

With `Cc1cc(N2CCN(C(=O)c3ccccc3C)CC2)nc(N(C)C)n1`, in data set [1], the EC50 was found to be 630 nM.

As for `Cc1ccccc1C(=O)N1CCN(c2nc(N3CCCC3)nc3c2COCC3)CC1`, the EC50 in data set [1] worked out at 410 nM.

Take `CC(=O)N1CCN(c2cc(C)nc(N3CCCC3)n2)CC1`: in data set [1], the concentration giving a half-maximal response (EC50) is 7100 nM.

On to `CC(C)(C)c1ccc(C(=O)N2CCN(c3nc(N4CCCC4)nc4c3CCC4)CC2)cc1`, for which, in data set [2], the solubility is 2 µM (≈ 0.867 µg/mL).

Turning to `Cc1ccccc1C(=O)N1CCN(c2nc(N3CCCC3)nc(C)c2C)CC1`, the EC50 in data set [1] was found to be 250 nM.

In the case of `Cc1ccccc1C(=O)N1CCN(c2cc(C(F)(F)F)nc(N3CCCC3)n2)CC1`, the 50% effective concentration (EC50) in data set [1] was more than 25000 nM.

For `Cc1cc(N2CCN(C(=O)c3ccc(Cl)cc3)CC2)nc(N2CCCC2)n1`, in data set [1], the concentration for a half-maximal effect (EC50) worked out at 40 nM.

On to `Cc1cc(N2CC3(CN(C(=O)c4ccccc4C)C3)C2)nc(N2CCCC2)n1`, for which, in data set [1], the concentration giving a half-maximal response (EC50) was determined as 2100 nM.

In turn, `Cc1cc(N2CCN(C(=O)c3cc(-c4ccccc4)nc4c3cnn4C(C)C)CC2)nc(C(C)C)n1` gave a solubility in data set [2] of 3 µM (≈ 1.45 µg/mL). For the same compound, in data set [1], the half-maximal effective concentration (EC50) came to 90 nM. Moreover, in data set [3], the CLint scaled turned out to be 0.341 mL/min/kg. Moreover, the Ratio in data set [4] amounted to 1.26.

On to `Cc1ccccc1C(=O)N1CCN(c2cc(CO)nc(N3CCCC3)n2)CC1`, for which the concentration giving a half-maximal response (EC50) in data set [1] stood at 220 nM.

Regarding `Cc1cc(N2CCN(C(=O)Cc3ccccc3)CC2)nc(N2CCCC2)n1`, in data set [1], the EC50 was found to be 460 nM.

Turning to `Cc1ccccc1C(=O)N1CCN(c2nc(N3CCCC3)ncc2C)CC1`, in data set [1], the concentration for a half-maximal effect (EC50) worked out at 120 nM.

Consider `Cc1cc(N2CCN(C(=O)c3ccc(C(C)(C)C)cc3)CC2)nc(N2CCCC2)n1`, for which the solubility in data set [2] came to 68 µM (≈ 27.7 µg/mL). For the same compound, in data set [3], the CLint scaled came out at 0.172 mL/min/kg.

On to `Cc1cc(N2CCN(C(=O)c3ccccc3Cl)CC2)nc(N2CCCC2)n1`, for which, in data set [1], the EC50 was 63 nM.

With `Cc1cc(N2CCN(C(=O)c3ccc(-c4ccccc4)cc3)CC2)nc(N2CCCC2)n1`, the 50% effective concentration (EC50) in data set [1] came out at 58 nM.

For the origin of these results see ChEMBL document CHEMBL5236669, “Identification of pyrimidinyl piperazines as non-iminosugar glucocerebrosidase (GCase) pharmacological chaperones” (Bioorg Med Chem Lett, 2023).
